Data as given in patent US4368261A, “Method and reagent for the determination of triglycerides” (priority 1979, dated 1983).

What was measured:
Experiment in all cases: Stability of glycerokinase in the presence of dichlorophenol at 25° C. (Table 2)
Type in all cases: biochemical
[1] = tested on: glycerokinase (GK, E.C. 2.7.1.30) from Candida mycoderma
From the text: (§1) It is known that Bacillus stearothermophilis contains a glycerokinase (see J. Appl. Bac., 38, 301-304/1975). However, it could not be deduced from this that this glycerokinase would display a good stability towards the mentioned group of activators which would permit its use together with these activators.

[2] = molecular target: glycerokinase (GK) from Bacillus stearothermophilis (Geobacillus stearothermophilus, UniProt A0ACH1EBP7)
From the text: as §1

[3] = molecular target: T1, glycerokinase (GK) from Escherichia coli (commercially available) (Escherichia coli, UniProt P0A6F3)
T1 construct: purchased
From the text: as §1

dichlorophenol
residual activity after 30 min. ([1]; 2 mM dichlorophenol): 68% | residual activity after 60 min. ([1]; 2 mM dichlorophenol): 56% | residual activity after 30 min. ([1]; 5 mM dichlorophenol): 18% | residual activity after 60 min. ([1]; 5 mM dichlorophenol): 7% | residual activity after 30 min. ([2]; 2 mM dichlorophenol): 100% | residual activity after 60 min. ([2]; 2 mM dichlorophenol): 100% | residual activity after 30 min. ([2]; 5 mM dichlorophenol): 100% | residual activity after 60 min. ([2]; 5 mM dichlorophenol): 100% | residual activity after 30 min. ([3]; 2 mM dichlorophenol): 93% | residual activity after 60 min. ([3]; 2 mM dichlorophenol): 87% | residual activity after 30 min. ([3]; 5 mM dichlorophenol): 81% | residual activity after 60 min. ([3]; 5 mM dichlorophenol): 58%
